Data on 13 compounds can be found in US5298626A, “Select cyclopent[b]indoles” (priority 1992, dated 1994).

Several values for one entry are separate records, joined by “and”; a condition that tells them apart may be missing. Identical values can stand only once. Like-named read-outs stand apart in the source and are kept apart here.

In one assay the target is α2-receptor. Kind of assay: 3H-Clonidine Binding: α2-Receptor. Details: species or system rat (male Wistar). Particulars: 3 nM 3H-clonidine, rat cortical tissue, pH 7.7. Here is the method: See references 1, 2 and 3 cited below. The interaction of a compound with central α2 -receptors is assessed in the ^3 H-clonidine binding assay.
2. Tris buffer containing physiological ions
3. [4-^3 H]-Clonidine hydrochloride (20-30 Ci/mmol) is obtained from New England Nuclear.
4. Clonidine-HCl is obtained from Boehringer Ingelheim. A stock solution of 0.1 mM clonidine is made up to determine nonspecific binding. This yields a final concentration of 1 μM in the assay (20 μl to 2 ml).
Male Wistar rats are sacrificed by decapitation and the cortical tissue rapidly dissected. The tissue is homogenized in 50 volumes of 0.05M Tris buffer, pH 7.7 (buffer 1b) with the Brinkman Polytron, then centrifuged at 40,000 g for 15 minutes. The supernatant is discarded and the pellet re-homogenized in the original volume of 0.05M Tris buffer, pH 7.7 and re-centrifuged as before. The supernate is discarded and the final pellet re-homogenized in 50 volumes of buffer 2b. This tissue suspension is then stored on ice. The final tissue concentration is […]. Specific binding is 1% of the total added ligand and 80% of total bound ligand.
100 μl--0.5M Tris-physiological salts, pH 7.7 (buffer 2a)
20 μl--Vehicle (for total binding) or 0. 1 mM clonidine (for nonspecific binding) or appropriate drug concentration
50 μl--^3 H-clonidine stock
1000 μl tissue suspension
Tissue homogenates are incubated for 20 minutes at […] with 3 nM 3 H-clonidine and varying drug concentrations, and thereafter immediately filtered under reduced pressure on Whatman GF/B filters. The filters are washed with three five ml volumes of ice-cold 0.05M Tris buffer, pH 7.7, and thereafter transferred to scintillation vials. Ten ml of Liquiscint counting solution is added to each sample which is then counted by liquid scintillation spectroscopy. Specific clonidine binding is defined as the difference between total bound and […]. The percent inhibition at each drug concentration is the mean of triplicate determinations.

A further assay addresses T1, MAO-A (Rattus norvegicus, UniProt P21396).
T1 construct: served as the tissue source for mitochondrial MAO; from tissue; host or cells: whole brain minus cerebellum of male Wistar rats, P2 pellet (18,000 g)
T1 sequence (P21396 1-526): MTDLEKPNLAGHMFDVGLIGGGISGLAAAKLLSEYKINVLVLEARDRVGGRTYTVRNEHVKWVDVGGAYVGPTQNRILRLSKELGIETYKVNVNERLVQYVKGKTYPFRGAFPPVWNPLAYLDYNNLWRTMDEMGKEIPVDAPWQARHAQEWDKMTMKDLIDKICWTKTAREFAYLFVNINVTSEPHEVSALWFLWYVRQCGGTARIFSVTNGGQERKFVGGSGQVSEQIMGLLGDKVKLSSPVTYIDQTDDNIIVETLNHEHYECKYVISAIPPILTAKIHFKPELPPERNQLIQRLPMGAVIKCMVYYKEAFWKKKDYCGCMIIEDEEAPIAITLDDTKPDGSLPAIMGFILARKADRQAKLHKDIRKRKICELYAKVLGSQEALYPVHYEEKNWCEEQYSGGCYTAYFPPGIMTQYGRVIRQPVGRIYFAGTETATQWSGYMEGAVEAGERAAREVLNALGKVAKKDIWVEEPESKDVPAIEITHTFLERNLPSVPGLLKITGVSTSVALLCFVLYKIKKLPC
The experiment in a line: biochemical. Details: species or system rat (male Wistar).

The target in another assay is T2, MAO-B (Rattus norvegicus, UniProt P19643).
T2 construct: served as the tissue source for mitochondrial MAO; from tissue; host or cells: whole brain minus cerebellum of male Wistar rats, P2 pellet (18,000 g)
T2 sequence (P19643 1-520): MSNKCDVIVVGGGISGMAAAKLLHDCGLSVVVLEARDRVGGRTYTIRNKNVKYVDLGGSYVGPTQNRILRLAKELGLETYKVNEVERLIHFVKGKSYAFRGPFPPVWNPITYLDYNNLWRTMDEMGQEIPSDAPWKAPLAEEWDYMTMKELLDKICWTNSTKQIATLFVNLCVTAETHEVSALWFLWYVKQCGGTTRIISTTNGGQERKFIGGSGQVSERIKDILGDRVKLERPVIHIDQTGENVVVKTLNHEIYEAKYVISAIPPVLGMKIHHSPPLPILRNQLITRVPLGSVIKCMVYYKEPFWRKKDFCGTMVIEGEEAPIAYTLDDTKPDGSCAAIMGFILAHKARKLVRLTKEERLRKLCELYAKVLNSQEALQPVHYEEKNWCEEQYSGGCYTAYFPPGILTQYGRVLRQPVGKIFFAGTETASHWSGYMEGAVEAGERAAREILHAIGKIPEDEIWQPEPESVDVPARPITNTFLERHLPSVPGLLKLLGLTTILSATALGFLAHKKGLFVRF
The experiment in a line: biochemical. Details: species or system rat (male Wistar).

In assay [1] the target is T3, Brain AChE (acetylcholinesterase) (Rattus norvegicus, UniProt P37136).
T3 construct: corpora striata dissected free, weighed and homogenized in 19 volumes; from tissue; host or cells: corpora striata of male Wistar rats, whole homogenate
T3 sequence (P37136 32-614): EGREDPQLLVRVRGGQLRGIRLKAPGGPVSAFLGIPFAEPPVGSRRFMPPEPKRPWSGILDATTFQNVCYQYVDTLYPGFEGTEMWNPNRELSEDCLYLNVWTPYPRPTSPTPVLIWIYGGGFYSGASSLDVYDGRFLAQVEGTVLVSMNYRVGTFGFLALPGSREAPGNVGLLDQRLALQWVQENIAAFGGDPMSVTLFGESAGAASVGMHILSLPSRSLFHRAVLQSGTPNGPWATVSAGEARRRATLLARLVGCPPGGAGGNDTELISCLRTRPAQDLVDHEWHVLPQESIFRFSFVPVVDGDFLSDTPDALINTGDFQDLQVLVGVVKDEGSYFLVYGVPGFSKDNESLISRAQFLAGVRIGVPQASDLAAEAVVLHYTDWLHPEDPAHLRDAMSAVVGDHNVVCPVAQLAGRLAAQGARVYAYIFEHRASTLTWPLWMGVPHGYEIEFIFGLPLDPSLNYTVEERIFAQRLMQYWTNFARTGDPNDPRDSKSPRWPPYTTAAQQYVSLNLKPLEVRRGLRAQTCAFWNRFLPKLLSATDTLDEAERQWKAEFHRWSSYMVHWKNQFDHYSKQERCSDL
Kind of assay: biochemical. Details: species or system rat (male Wistar). To be noted: rat striatum, read-out: Inhibitory Concentration, IC50. Here is the method: Cholinesterases are found throughout the body, both in the brain and in serum.
In Vitro Inhibition of Acetylcholinesterase Activity in Rat Striatum
The method described below was used in this invention for assaying cholinesterase activity. This is a modification of the method of Ellman et al., Biochem. Pharmacol. 7, 88 (1961).
1. 0.05M Phosphate buffer, pH 7.2
4. A 2 mM stock solution of the test drug is made up in a suitable solvent and q.s. to volume with 0.5 mM DTNB (reagent 3). […] If active, IC50 values are determined from the inhibitory activity of subsequent concentrations.
Male Wistar rats are decapitated, brains rapidly removed, corpora striata dissected free, weighed and homogenized in 19 volumes (approximately 7 mg protein/ml) of 0.05M phosphate buffer, pH 7.2 using a Potter-Elvehjem homogenizer.
Enzyme activity is measured with the Beckman DU-50 spectrophotometer. This method can be used for IC50 determinations and for measuring kinetic constants.
Blank values are determined for each run to control for non-enzymatic hydrolysis of substrate and these values are automatically subtracted by the kindata program available on kinetics soft-pac module. This program also calculates the rate of absorbance change for each cuvette.
Substrate concentration is 10 mM diluted 1:2 in assay yielding final concentration of 5 mM. […] IC50 values are calculated from log-probit analysis

The subject of assay [2] is Scopolamine Induced Memory Deficit. The format is in vivo, mice. The protocol: In this assay mice are tested for their ability to remember an unpleasant stimulus for a period of 24 hours. A mouse is placed in a chamber that contains a dark compartment; a strong incandescent light drives it to the dark compartment, where an electric shock is administered through metal plates on the floor. The animal is removed from the testing apparatus and tested again, 24 hours later, for the ability to remember the electric shock.
If scopolamine, an anticholinergic that is known to cause memory impairment, is administered before an animal's initial exposure to the test chamber, the animal re-enters the dark compartment shortly after being placed in the test chamber 24 hours later. This effect of scopolamine is blocked by an active test compound, resulting in a greater interval before re-entry into the dark compartment.
The results for an active compound are expressed as the percent of a group of animals in which the effect of scopolamine is blocked, as manifested by an increased interval between being placed in the test chamber and re-entering the dark compartment.

In assay [3] the test system is monoamine oxidase type A and type B. To be noted: literature, reference (2); cited from earlier work.

Procedure for MAO-A: Inhibition of Type A and Type B Monoamine Oxidase
Activity in Rat Brain Synaptosomes
(§1) To determine the selective inhibition of the two forms of monoamine oxidase (MAO).
Although various methods for measuring MAO activity are available, the described method involves the extraction of the radiolabeled deaminated metabolites of [^3 H]-5HT or [^14 C]-β-phenethylamine.
a. Serotonin creatine SO4 (5HT) is obtained from Sigma Chemical Company. A 5 mM stock solution is made up in 0.01N HCl. This is used to dilute the specific activity of the [^3 H]-5HT. b. [^3 H]-5-Hydroxytryptamine binoxalate (20-30 Ci/mmol) is obtained from New England Nuclear. c. Add 12 μl of [^3 H]-5HT to 2 ml of the 5 mM 5HT solution. (Final amine concentration in the assay is 200 μM: see below.)
5. Equal amounts of MAO-A (5HT) and MAO-B (PEA) substrates are combined for simultaneously testing both MAO types, i.e. mixed stock solution of 2.5 mM 5HT and 2.5 mM PEA, 40 μl of this mixed solution gives a 200 μM final concentration of each amine in the assay. When testing only one MAO type, the individual 5 mM stock solutions must be diluted 1: 1 with distilled water prior to adding 40 μl to the incubation mixture; i.e., same 200 μM final amine concentration.
(§2) Male Wistar rats weighting 15-250 grams were sacrificed an removed. Whole brain minus cerebellum was homogenized in 30 volumes of ice-cold, phosphate-buffered 0.25M sucrose, using a Potter-Elvejhem homogenizer. The homogenate as centrifuged at 1000 g for 10 minutes and the supernatant (S1) decanted and recentifuged at 18,000 g for 20 minutes. […]
(§3) Tubes are preincubated for 15 minutes at 37° C. and the assay is started by adding 40 μl of combined substrate ([^3 H]-5HT and [^14 C]-PEA) at 15 second intervals. […] Tissue blank values are determined by adding the acid before the radioactive substrate. […] 10 ml of Liquiscint is added and the samples are counted using window settings for in ^14 C in one channel and ^3 H in the second channel. IC50 values are determined by log-probit analysis.
Procedure for MAO-B: Activity in Rat Brain Synaptosomes
as §1
Although various methods for measuring MAO activity are available, the described method involves the extraction of the radiolabeled deaminated metabolites of [^3 H]-5HT or [^14 C]-β-phenethylamine. This procedure allows MAO-A and MAO-B activities to be measured either simultaneously or individually (3).
A 5 mM stock solution is made up in 0.01N HCl. This is used to dilute the specific activity of the [^14 C]-PEA. b. β-[ethyl-1-^14 C]-phenethylaminehydrochloride(40-50 mCi/mmol) is obtained from New England Nuclear. c. Add 12 μl of [^14 C]-PEA to 2 ml of the 5 mM PEA solution. (Final amine concentration in the assay is 200 μM: see below.)
Equal amounts of MAO-A (5HT) and MAO-B (PEA) substrates are combined for simultaneously testing both MAO types, i.e. mixed stock solution of 2.5 mM 5HT and 2.5 mM PEA, 40 μl of this mixed solution gives a 200 μM final concentration of each amine in the assay. When testing only one MAO type, the individual 5 mM stock solutions must be diluted 1: 1 with distilled water prior to adding 40 μl to the incubation mixture; i.e., same 200 μM final amine concentration.
as §2, §3

In turn, `NC1CCC2c3ccccc3NC12` (stereo not shown) [1,2,3,3a,4,8b-Hexahydrocyclopent[b]indol-3-amine 2-naphthalene sulfonate hemihydrate] gave an IC50 on α2-receptor of 1270 nM. For the compound `C#CCNC1CCc2c1[nH]c1ccccc21` (stereo not shown) [1,2,3,4-Tetrahydrocyclopent[b]indol-3-(2-propynyl)amine], the IC50 at MAO-A (substrate [3H]-5HT, 200 μM, read-out: Inhibitory Concentration - IC50, MAO-A) worked out at 290 nM; on MAO-B (substrate [14C]-PEA, 200 μM, read-out: Inhibitory Concentration - IC50, MAO-B), 320 nM.

On to `CNC(=O)Oc1ccc2c(c1)c1c(n2C)C(NC2CC2)CC1` (stereo not shown) [3-(N-Cyclopropyl)amino-4-methyl-1,2,3,4-tetrahydrocyclopent[b]indol-7-yl methylcarbamate], for which the IC50 was 3.5 µM in assay [1], 320 nM against MAO-A and 420 nM against MAO-B. The “% of Animals with Scopolamine Induced Memory Deficit Reversal” value (from here on “% of Animals”) in assay [2] (0.63 mg/kg of body weight, s.c., retest at 24 hours) amounted to 27%; in assay [2] (2.5 mg/kg of body weight, s.c., retest at 24 hours), 33%. With `CNC(=O)Oc1ccc2c(c1)c1c(n2C)C(=NC2CC2c2ccccc2)CC1` (stereo not shown) [4-Methyl-3-[(2-phenylcyclopropyl)imino]-1,2,3,4-tetrahydrocyclopent[b]indol-7-yl methylcarbamate], the IC50 on MAO-A was 15200 nM; against MAO-B, 3700 nM. As to `Cn1c2c(c3ccccc31)CCC2N` (stereo not shown) [4-methyl-1,2,3,4-tetrahydrocyclopent[b]indol-3-amine], the IC50 at α2-receptor was determined as 1490 nM. For `CNC(=O)Oc1ccc2c(c1)c1c(n2C)C(NCc2ccccc2)CC1` (stereo not shown) [4-methyl-3-phenylmethylamino-1,2,3,4-tetrahydrocyclopent[b]indol-7-yl methylcarbamate], the IC50 in assay [1] was 1.1 µM and 6.2 µM. With `Cn1c2c(c3cc(O)ccc31)CCC2=NCc1ccccc1` [4-methyl-3-phenylmethylimino-1,2,3,4-tetrahydrocyclopent[b]indol-7-ol], the IC50 on α2-receptor was found to be 850 nM. Turning to `CN(C)CCC=C1c2ccccc2CCc2ccccc21` [Amitriptyline, reference compound], the IC50 at α2-receptor turned out to be 3900 nM.

On to `C#CCN(C)CCCOc1ccc(Cl)cc1Cl` [Clorgyline], for which the “selectivity for type A / type B monoamine oxidase” value in assay [3] is listed as “selective inhibitor of the type A enzyme”.

`CC[C@@H]1C(=O)OC[C@@H]1Cc1cncn1C` [Pilocarpine, reference compound]: in assay [2] (5.0 mg/kg of body weight, s.c., retest at 24 hours), the “% of Animals” value is reported as 13%.

As for `Nc1c2c(nc3ccccc13)CCCC2` [Tacrine, reference compound], in assay [2] (mouse, in vivo), the “% of Animals” value is on record as 13%. On to `CC(C)NNC(=O)c1ccncc1` [iproniazid], for which the “selectivity for type A / type B monoamine oxidase” value in assay [3] is on record as “nonselective inhibitors”. Regarding `C#CCN(C)Cc1ccccc1` [pargyline], the “selectivity for type A / type B monoamine oxidase” value in assay [3] is “selective inhibitors of the type B enzyme”.
